Test results as given in US20160220569A1, “CDK4/6 Inhibitor Dosage Formulations For The Protection Of Hematopoietic Stem And Progenitor Cells During Chemotherapy” (G1 Therapeutics, Inc., priority 2015, published 2016).
Where “and” joins values, the source holds several entries; their conditions need not be identical. Identical values can stand only once. Like-named read-outs stand apart in the source and are kept apart here.

Assay: Single escalating dose IV infusion pharmacokinetics in healthy volunteers (noncompartmental)
Format: in vivo, human
Details: for HL_Lambda_z / highest (peak) concentration: individual subjects; for HL_Lambda_z: WinNonlin noncompartmental analysis, in h
Experimental: Forty-five subjects have enrolled in the study.
Analysis of plasma concentration versus time data for calculation of standard pharmacokinetic (PK) parameters following intravenous infusion administration was conducted using Phoenix WinNonlin version 6.3 using a nominal infusion duration and scheduled blood sampling times. Random subject numbers were assigned by the bioanalytical laboratory to retain the blind.
(§1) Analysis of plasma concentration versus time data for calculation of standard pharmacokinetic (PK) parameters following intravenous infusion administration was conducted using Phoenix WinNonlin version 6.3 using a nominal infusion duration and scheduled blood sampling times.
as §1

[1] = Cohort 2, 12 mg/m^2 IV, r6-8=Subjects 1-3,r10=Mean,r12=Min,r13=Median,r14=Max,r16=Geometric Mean, geometric mean
[2] = Cohort 2, 12 mg/m^2 IV, r6-8=Subjects 1-3,r10=Mean,r12=Min,r13=Median,r14=Max,r16=Geometric Mean, mean
[3] = Cohort 2, 12 mg/m^2 IV, r6-8=Subjects 1-3,r10=Mean,r12=Min,r13=Median,r14=Max,r16=Geometric Mean, median
[4] = Cohort 3, 24 mg/m^2 IV, r6-8=Subjects 1-3,r10=Mean,r12=Min,r13=Median,r14=Max,r16=Geometric Mean, geometric mean
[5] = Cohort 3, 24 mg/m^2 IV, r6-8=Subjects 1-3,r10=Mean,r12=Min,r13=Median,r14=Max,r16=Geometric Mean, maximum
[6] = Cohort 3, 24 mg/m^2 IV, r6-8=Subjects 1-3,r10=Mean,r12=Min,r13=Median,r14=Max,r16=Geometric Mean, mean
[7] = Cohort 3, 24 mg/m^2 IV, r6-8=Subjects 1-3,r10=Mean,r12=Min,r13=Median,r14=Max,r16=Geometric Mean, median
[8] = Cohort 3, 24 mg/m^2 IV, r6-8=Subjects 1-3,r10=Mean,r12=Min,r13=Median,r14=Max,r16=Geometric Mean, minimum
[9] = Cohort 4, 48 mg/m^2 IV, r6-8=Subjects 1-3,r10=Mean,r12=Min,r13=Median,r14=Max,r16=Geometric Mean, geometric mean
[10] = Cohort 4, 48 mg/m^2 IV, r6-8=Subjects 1-3,r10=Mean,r12=Min,r13=Median,r14=Max,r16=Geometric Mean, maximum
[11] = Cohort 4, 48 mg/m^2 IV, r6-8=Subjects 1-3,r10=Mean,r12=Min,r13=Median,r14=Max,r16=Geometric Mean, mean
[12] = Cohort 4, 48 mg/m^2 IV, r6-8=Subjects 1-3,r10=Mean,r12=Min,r13=Median,r14=Max,r16=Geometric Mean, median
[13] = Cohort 4, 48 mg/m^2 IV, r6-8=Subjects 1-3,r10=Mean,r12=Min,r13=Median,r14=Max,r16=Geometric Mean, minimum
[14] = Cohort 5, 96 mg/m^2, 30-minute IV infusion, noncompartmental, subjects 1-6, Mean, Min, Median, Max, Geometric Mean, minimum

CN1CCN(c2ccc(Nc3ncc4cc5n(c4n3)C3(CCCCC3)CNC5=O)nc2)CC1 [Compound 1, 2′-((5-(4-methylpiperazin-1-yl)pyridin-2-yl)amino)-7′,8′-dihydro-6′H-spiro[cyclohexane-1,9′-pyrazino[1′,2′:1,5]pyrrolo[2,3-d]pyrimidin]-6′-one]
HL_Lambda_z (Cohort 1, 6 mg/m^2): 6.358 and 3.5207 and 4.7366
highest (peak) concentration (Cohort 1, 6 mg/m^2 IV): 42.7 ng/mL and 42.9 ng/mL and 60.5 ng/mL
Clearance (CL) (Cohort 1, 6 mg/m^2 IV, mean): 91.4 L/h/m^2
volume of distribution at steady state (Vss) averaging (Cohort 1, 6 mg/m^2 IV, mean): 358 L/m^2
HL_Lambda_z (Cohort 2, 12 mg/m^2): 7.5562 and 8.8853
highest (peak) concentration (Cohort 2, 12 mg/m^2 IV): 87.4 ng/mL and 136 ng/mL
Clearance (CL) (Cohort 2, 12 mg/m^2 IV, mean): 83.5 L/h/m^2
volume of distribution at steady state (Vss) averaging (Cohort 2, 12 mg/m^2 IV, mean): 461 L/m^2
AUCinf [1]: 0.146 µg·h/mL
CL [1]: 82.4 L/h/m^2
Cmax [1]: 0.119 µg/mL
MRTinf [1]: 5.51 h
Tmax [1]: 0.397 h
Vss [1]: 454 L/m^2
λz [1]: 0.0845 h⁻¹
CL [2]: 83.5 L/h/m^2
Vss [2]: 461 L/m^2
λz [2]: 0.0847 h⁻¹
AUCinf [3]: 0.136 µg·h/mL
CL [3]: 88.4 L/h/m^2
Cmax [3]: 0.136 µg/mL
MRTinf [3]: 5.98 h
Vss [3]: 405 L/m^2
λz [3]: 0.0844 h⁻¹
HL_Lambda_z (Cohort 3, 24 mg/m^2): 13.1458 and 8.6328 and 7.8478
Clearance (CL) (Cohort 3, 24 mg/m^2 IV, mean): 90.7 L/h/m^2
volume of distribution at steady state (Vss) averaging (Cohort 3, 24 mg/m^2 IV, mean): 562 L/m^2
AUClast [4]: 0.253 µg·h/mL
Vss [4]: 550 L/m^2
λz [4]: 0.0720 h⁻¹
AUClast [5]: 0.337 µg·h/mL
Vss [5]: 674 L/m^2
λz [5]: 0.0883 h⁻¹
Vss [6]: 562 L/m^2
λz [6]: 0.0738 h⁻¹
AUClast [7]: 0.259 µg·h/mL
Vss [7]: 599 L/m^2
λz [7]: 0.0803 h⁻¹
AUClast [8]: 0.186 µg·h/mL
Vss [8]: 412 L/m^2
λz [8]: 0.0527 h⁻¹
HL_Lambda_z (Cohort 4, 48 mg/m^2): 10.9028 and 7.2383 and 8.5525
Clearance (CL) (Cohort 4, 48 mg/m^2 IV, mean): 96.5 L/h/m^2
volume of distribution at steady state (Vss) averaging (Cohort 4, 48 mg/m^2 IV, mean): 771 L/m^2
Tmax (Cohort 4, 48 mg/m^2 IV, r6-8=Subjects 1-3,r10=Mean,r12=Min,r13=Median,r14=Max,r16=Geometric Mean): 0.25 h
AUCinf [9]: 0.498 µg·h/mL
AUClast [9]: 0.452 µg·h/mL
CL [9]: 96.4 L/h/m^2
MRTinf [9]: 7.83 h
Tmax [9]: 0.397 h
Vss [9]: 754 L/m^2
λz [9]: 0.0790 h⁻¹
AUCinf [10]: 0.524 µg·h/mL
AUClast [10]: 0.48 µg·h/mL
CL [10]: 105 L/h/m^2
Cmax [10]: 0.228 µg/mL
MRTinf [10]: 10.7 h
Vss [10]: 995 L/m^2
λz [10]: 0.0958 h⁻¹
CL [11]: 96.5 L/h/m^2
Vss [11]: 771 L/m^2
λz [11]: 0.0801 h⁻¹
AUCinf [12]: 0.514 µg·h/mL
AUClast [12]: 0.441 µg·h/mL
CL [12]: 93.3 L/h/m^2
Cmax [12]: 0.227 µg/mL
MRTinf [12]: 7.80 h
Vss [12]: 715 L/m^2
λz [12]: 0.0810 h⁻¹
AUCinf [13]: 0.459 µg·h/mL
AUClast [13]: 0.437 µg·h/mL
CL [13]: 91.7 L/h/m^2
MRTinf [13]: 5.76 h
Tmax [13]: 0.250 h
Vss [13]: 603 L/m^2
λz [13]: 0.0636 h⁻¹
AUClast (Cohort 5, 96 mg/m^2, 30-minute IV infusion, noncompartmental, subjects 1-6, Mean, Min, Median, Max, Geometric Mean, mean): 1.24 µg·h/mL
AUClast [14]: 1.04 µg·h/mL
Tmax [14]: 0.250 h
maximum mean concentration (Cohort 5, 96 mg/m^2 IV, at the end of infusion (EOI)): 874 ng/mL
Clearance (CL) (Cohort 5, 96 mg/m^2 IV, mean): 74 L/h/m^2
volume of distribution at steady state (Vss) averaging (Cohort 5, 96 mg/m^2 IV, mean): 429 L/m^2
HL_Lambda_z (Cohort 5, received 96 mg/m^2): 8.4971 and 10.9427 and 7.5378 and 10.6557 and 7.1128 and 6.9746
Clearance (CL) (Cohort 6, […]^2 IV, mean): 62.1 L/h/m^2
volume of distribution at steady state (Vss) averaging (Cohort 6, […]^2 IV, mean): 547 L/m^2
AUC(0-inf) (both sexes, human, plasma, iv, 6 mg/m2, Cohort 1, 6 mg/m^2 IV, mean, read-out: AUCinf averaged): 0.0677 µg·h/mL
Cmax (both sexes, human, plasma, iv, 6 mg/m2, Cohort 1, 6 mg/m^2 IV, mean, read-out: Cmax averaged): 0.0509 µg/mL
Tmax (both sexes, human, plasma, iv, 6 mg/m2, Cohort 1, 6 mg/m^2 IV, mean, read-out: Tmax): 0.33 h
half-life (both sexes, human, plasma, iv, 6 mg/m2, Cohort 1, 6 mg/m^2 IV, mean, read-out: average half-life (converted)): 4.87 h
MRT inf (both sexes, human, plasma, iv, 6 mg/m2, Cohort 1, 6 mg/m^2 IV, r6-8=Subjects 1-3,r10=Mean,r12=Min,r13=Median,r14=Max,r16=Geometric Mean): 4.18 h
AUC(0-inf) (both sexes, human, plasma, iv, 6 mg/m2, Cohort 1, 6 mg/m^2 IV, r6-8=Subjects 1-3,r10=Mean,r12=Min,r13=Median,r14=Max,r16=Geometric Mean, read-out: AUCinf): 0.0677 µg·h/mL
Cmax (both sexes, human, plasma, iv, 6 mg/m2, Cohort 1, 6 mg/m^2 IV, r6-8=Subjects 1-3,r10=Mean,r12=Min,r13=Median,r14=Max,r16=Geometric Mean, read-out: Cmax): 0.0509 µg/mL
Tmax (both sexes, human, plasma, iv, 6 mg/m2, Cohort 1, 6 mg/m^2 IV, r6-8=Subjects 1-3,r10=Mean,r12=Min,r13=Median,r14=Max,r16=Geometric Mean, read-out: Tmax): 0.333 h
half-life (both sexes, human, plasma, iv, 6 mg/m2, Cohort 1, 6 mg/m^2 IV, r6-8=Subjects 1-3,r10=Mean,r12=Min,r13=Median,r14=Max,r16=Geometric Mean, read-out: t½ (converted)): 4.87 h
